Source: ChEMBL document CHEMBL5725498, “ROR modulators and their uses” (2017)

Tests used:
[1] = TH17 Cytokine Inhibition ELISA: Human CD4+ T cells were differentiated to TH17 cells as described in the presence or absence of various concentrations of compounds in a final concentration of 0.1% DMSO in TexMACS medium. Supernatants were collected and stored at −20° C. until they were to be assayed for IL-17A, IL-17F, IL-17AF, IL-21 and/or IL-22 levels as determined by Ready-Set-Go ELISA kits (eBioscience) as per manufacturer's instructions. Endpoint absorbance was read at 450 nm and 570 nm according to manufacturer's instructions (eBioscience) using a microplate reader (Perkin Elmer). The percentage of cytokine inhibition was calculated with reference to DMSO treated cells and the IC50s were determined by GraphPad Prism software and presented in the table below.
[2] = biological target: T1, Nuclear receptor ROR-gamma (Homo sapiens, UniProt P51449); assay: RORgamma LBD Binding Assay: Compound binding to the human RORγ LBD was assessed using the Human RORγ Assay System (INDIGO Biosciences Inc.) as per manufacturer's instructions. Binding to the RORγ LBD was assessed using gradient concentrations of the indicated compounds in a final concentration of 0.5% DMSO, where IC50s were generated using Graphpad Prism.
T1 sequence (P51449 whole entry): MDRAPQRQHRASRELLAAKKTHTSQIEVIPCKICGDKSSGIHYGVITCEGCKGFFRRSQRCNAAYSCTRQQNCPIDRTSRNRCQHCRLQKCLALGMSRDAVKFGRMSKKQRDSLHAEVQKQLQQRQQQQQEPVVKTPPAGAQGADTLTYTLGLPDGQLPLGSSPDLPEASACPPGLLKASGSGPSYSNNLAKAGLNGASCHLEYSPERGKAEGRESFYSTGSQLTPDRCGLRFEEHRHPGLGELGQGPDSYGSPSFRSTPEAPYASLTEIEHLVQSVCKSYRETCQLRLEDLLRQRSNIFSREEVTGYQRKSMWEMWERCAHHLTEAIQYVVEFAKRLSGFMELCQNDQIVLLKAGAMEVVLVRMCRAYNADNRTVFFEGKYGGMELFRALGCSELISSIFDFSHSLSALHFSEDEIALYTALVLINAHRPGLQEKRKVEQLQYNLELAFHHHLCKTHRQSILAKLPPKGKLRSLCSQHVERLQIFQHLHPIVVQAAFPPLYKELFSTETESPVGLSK

Structure (SMILES)	IC50 [1] [µM]	IC50 [2] [µM]
OC(c1ccc(CBr)cc1)(C(F)(F)F)C(F)(F)F	< 10	
CN(C)C(=O)c1ccc2c(ccc(=O)n2Cc2ccc(C(O)(C(F)(F)F)C(F)(F)F)cc2)c1	< 10	
CN(C)C(=O)c1ccc2c(c1)CCC(=O)N2Cc1ccc(C(O)(C(F)(F)F)C(F)(F)F)cc1	> 10	< 10
